Test system: human umbilical vein endothelial cells (HUVEC)
Experiment: HUVEC proliferation assay (VEGF-stimulated, MTT);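 as to % inhibition of the proliferation of HUVEC: relative to VEGF-stimulated control minus starvation-medium baseline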
Format: cell-based
Details: for % inhibition of the proliferation of HUVEC / % inhibition: crude reaction mixtures; for % inhibition: Library III, HUVEC proliferation, nominal concentration of 0.5 nM
[1] = Library II, Y=S, 0.5 mM (column head; text: nominal 0.5 nM)
[2] = Library I, Y = CO, nominal concentration of 10 nM
[3] = Library I, Y = NH, nominal concentration of 10 nM
[4] = Library I, Y = O, nominal concentration of 10 nM
[5] = Library II, Y=S, 2 mM (column head; text: nominal 2 nM)

Question: `Nc1cccc(C(=O)c2ccc3c(/C=N/n4cccc4)n[nH]c3c2)c1` [Example 44] was tested. Which IC50 (Homo sapiens, HUVEC, read-out: HUVEC IC50) did it give?
Answer: > 0.7 µM

Question: How did the “% inhibition of the proliferation of HUVEC” value (“% inhibition … of HUVEC” below) [1] turn out when `NC(=O)c1ccccc1Sc1ccc2c(/C=C/c3ccccn3)n[nH]c2c1` [H-X1] was run?
Answer: 9%

Question: With `O=C(NC1CCS(=O)(=O)C1)c1ccc2c(-c3nc4ccccc4[nH]3)n[nH]c2c1` (centres unmarked) [drawing 576] as the compound, how does the “% inhibition … of HUVEC” value [2] read?
Answer: 47%

Question: And the “% inhibition … of HUVEC” value [3]?
Answer: 10%

Question: What about the “% inhibition … of HUVEC” value [4] of the same compound?
Answer: 17%

Question: `O=C(Nc1ccc2[nH]c(=O)[nH]c2c1)c1ccc2c(-c3nc4ccccc4[nH]3)n[nH]c2c1` [drawing 582] was tested. Which “% inhibition … of HUVEC” value [2] did it give?
Answer: 42%

Question: And the “% inhibition … of HUVEC” value [3]?
Answer: 6%

Question: And the “% inhibition … of HUVEC” value [4]?
Answer: 13%

Question: For `O=C(Nc1ccc(O)cc1)c1ccc2c(-c3nc4ccccc4[nH]3)n[nH]c2c1` [drawing 585], which “% inhibition … of HUVEC” value [2] is on record?
Answer: 33%

Question: What about the “% inhibition … of HUVEC” value [3] of the same compound?
Answer: 3%

Question: What about the “% inhibition … of HUVEC” value [4] of the same compound?
Answer: 32%

Question: For `O=C(NC1CC1)c1ccc2c(-c3nc4ccccc4[nH]3)n[nH]c2c1` [drawing 587], which “% inhibition … of HUVEC” value [2] is on record?
Answer: 20%

Question: And the “% inhibition … of HUVEC” value [3]?
Answer: 0%

Question: What about the “% inhibition … of HUVEC” value [4] of the same compound?
Answer: 43%

Question: Which results are given for `O=C(Nc1cnccn1)c1ccc2c(-c3nc4ccccc4[nH]3)n[nH]c2c1` [drawing 595]?
Answer: % inhibition of the proliferation of HUVEC [2]: −11%; % inhibition of the proliferation of HUVEC [3]: −7%; % inhibition of the proliferation of HUVEC [4]: 52%

Question: Which results are given for `O=C(Nc1ncnc2[nH]cnc12)c1ccc2c(-c3nc4ccccc4[nH]3)n[nH]c2c1` [drawing 600]?
Answer: % inhibition of the proliferation of HUVEC [2]: 27%; % inhibition of the proliferation of HUVEC [3]: −9%; % inhibition of the proliferation of HUVEC [4]: 52%

Question: For `COc1ccc(NC(=O)c2ccc3c(-c4nc5ccccc5[nH]4)n[nH]c3c2)cc1O` [drawing 607], which “% inhibition … of HUVEC” value [1] is on record?
Answer: 19%

Question: What about the “% inhibition … of HUVEC” value [5] of the same compound?
Answer: 89%

Question: How did the “% inhibition … of HUVEC” value [1] turn out when `COC(=O)c1ccc(NC(=O)c2ccc3c(-c4nc5ccccc5[nH]4)n[nH]c3c2)o1` [drawing 608] was run?
Answer: 38%

Question: And the “% inhibition … of HUVEC” value [5]?
Answer: 2%

Question: What does the source list for `C=CCC(NC(=O)c1ccc2c(-c3nc4ccccc4[nH]3)n[nH]c2c1)c1ccccn1` (centres unmarked) [drawing 609]?
Answer: % inhibition of the proliferation of HUVEC [1]: 37%; % inhibition of the proliferation of HUVEC [5]: 16%

Question: Which “% inhibition … of HUVEC” value [1] does the source give for `COC(=O)c1cc(NC(=O)c2ccc3c(-c4nc5ccccc5[nH]4)n[nH]c3c2)ccc1O` [drawing 610] here?
Answer: 39%

Question: What about the “% inhibition … of HUVEC” value [5] of the same compound?
Answer: 15%

Question: With `CC(C)CCNC(=O)c1ccccc1Sc1ccc2c(/C=C/c3ccccn3)n[nH]c2c1` [drawing 614] as the compound, how does the “% inhibition … of HUVEC” value [1] read?
Answer: 14%

Question: What about the “% inhibition … of HUVEC” value [5] of the same compound?
Answer: 55%

Question: Which “% inhibition … of HUVEC” value [1] does the source give for `O=C(NCC(F)(F)F)c1ccccc1Sc1ccc2c(/C=C/c3ccccn3)n[nH]c2c1` [drawing 626] here?
Answer: 34%

Question: And the “% inhibition … of HUVEC” value [5]?
Answer: 61%

Question: With `CNC(=O)c1ccccc1Sc1ccc2c(/C=C/c3ccccn3)n[nH]c2c1` [drawing 635] as the compound, how does the “% inhibition … of HUVEC” value [1] read?
Answer: 8%

Question: And the “% inhibition … of HUVEC” value [5]?
Answer: 21%

Question: Which “% inhibition … of HUVEC” value [1] does the source give for `CC(C)(C)CNC(=O)c1ccccc1Sc1ccc2c(/C=C/c3ccccn3)n[nH]c2c1` [drawing 687] here?
Answer: 5%

Question: And the “% inhibition … of HUVEC” value [5]?
Answer: −6%

Question: How did the “% inhibition … of HUVEC” value [1] turn out when `O=C(NCC1(O)CCCCC1)c1ccccc1Sc1ccc2c(/C=C/c3ccccn3)n[nH]c2c1` [drawing 688] was run?
Answer: 26%

Question: What about the “% inhibition … of HUVEC” value [5] of the same compound?
Answer: −19%

Question: What does the source list for `CCNC(=O)c1ccccc1Sc1ccc2c(/C=C/c3ccccn3)n[nH]c2c1` [drawing 696]?
Answer: % inhibition of the proliferation of HUVEC [1]: 16%; % inhibition of the proliferation of HUVEC [5]: 17%

Question: What does the source list for `CC(C)(C)CNC(=O)c1ccccc1Sc1ccc2c(/C=C/c3ccccn3)n[nH]c2c1` [drawing 728]?
Answer: % inhibition of the proliferation of HUVEC [1]: 19%; % inhibition of the proliferation of HUVEC [5]: 24%

Question: `CCOCCNC(=O)c1ccccc1Sc1ccc2c(/C=C/c3ccccn3)n[nH]c2c1` [drawing 732] was tested. Which “% inhibition … of HUVEC” value [1] did it give?
Answer: 53%

Question: What about the “% inhibition … of HUVEC” value [5] of the same compound?
Answer: 75%

Question: Which “% inhibition … of HUVEC” value [1] does the source give for `O=C(Nc1nccs1)c1ccccc1Sc1ccc2c(/C=C/c3ccccn3)n[nH]c2c1` [drawing 740] here?
Answer: 33%

Question: And the “% inhibition … of HUVEC” value [5]?
Answer: 94%

Question: `O=C(NCC1CC1)c1ccccc1Sc1ccc2c(/C=C/c3ccccn3)n[nH]c2c1` [drawing 758] was tested. Which “% inhibition … of HUVEC” value [1] did it give?
Answer: 35%

Question: And the “% inhibition … of HUVEC” value [5]?
Answer: 69%

Question: For `O=C(NNc1ccccn1)c1ccccc1Sc1ccc2c(/C=C/c3ccccn3)n[nH]c2c1` [drawing 760], which “% inhibition … of HUVEC” value [1] is on record?
Answer: 32%

Question: What about the “% inhibition … of HUVEC” value [5] of the same compound?
Answer: 92%

Question: `Cc1ccc(CNC(=O)c2ccccc2Sc2ccc3c(/C=C/c4ccccn4)n[nH]c3c2)o1` [drawing 763] was tested. Which “% inhibition … of HUVEC” value [1] did it give?
Answer: 56%

Question: And the “% inhibition … of HUVEC” value [5]?
Answer: 96%

Question: `O=C(NC1CCSC1=O)c1ccccc1Sc1ccc2c(/C=C/c3ccccn3)n[nH]c2c1` (centres unmarked) [drawing 785] was tested. Which “% inhibition … of HUVEC” value [1] did it give?
Answer: 25%

Question: What about the “% inhibition … of HUVEC” value [5] of the same compound?
Answer: 40%

Question: For `O=C(NCc1cccc(F)c1)c1ccccc1Sc1ccc2c(/C=C/c3ccccn3)n[nH]c2c1` [drawing 797], which “% inhibition … of HUVEC” value [1] is on record?
Answer: 81%

Question: What about the “% inhibition … of HUVEC” value [5] of the same compound?
Answer: 95%

Question: Which “% inhibition” value (0.0005 µM) does the source give for `CC(C)CC(CO)NC(=O)c1ccccc1Sc1ccc2c(C=Cc3ccccn3)n[nH]c2c1` (centres unmarked) [drawing 1015] here?
Answer: −13%

Question: `CC(C)CC(CO)NC(=O)c1ccccc1Sc1ccc2c(C=Cc3ccccn3)n[nH]c2c1` (centres unmarked) [drawing 1021] was tested. Which “% inhibition” value did it give?
Answer: −2%

Question: `O=C(Nc1cccc(Cl)c1)c1ccccc1Sc1ccc2c(/C=C/c3ccccn3)n[nH]c2c1` [drawing 1041] was tested. Which “% inhibition” value did it give?
Answer: −15%
